US8999982B2, “Pharmaceutically active compounds as Axl inhibitors” (Lead Discovery Center GmbH, priority 2010, dated 2015)

Tests used:
[1] = target: T1, Axl (Homo sapiens (Human), UniProt P30530); assay: Cellular Axl phosphorylation assay; format: cell-based; details: HEK293 cells transfected with Axl cDNA, 1 hour incubation
Method in brief: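 Transiently Axl-transfected HEK293 cells, with a vector-only negative control, were treated with compound for 1 hour on the day after medium change. Axl phosphorylation was quantified by mesoscale detection.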

[2] = target: T1, Axl; assay: Axl binding assay
Experimental: Binding of the tracer to the kinase is detected using an EU-labeled anti-tag antibody. […] Binding of an inhibitor to the kinase competes for binding with the tracer, resulting in a loss of FRET-signal. At first a compound according to formula (I) was diluted in 20 mM Hepes pH 8.0, 1 mM DTT, 10 mM MgCl2 and 0.01% Brij35.

T1 sequence (P30530 26-894): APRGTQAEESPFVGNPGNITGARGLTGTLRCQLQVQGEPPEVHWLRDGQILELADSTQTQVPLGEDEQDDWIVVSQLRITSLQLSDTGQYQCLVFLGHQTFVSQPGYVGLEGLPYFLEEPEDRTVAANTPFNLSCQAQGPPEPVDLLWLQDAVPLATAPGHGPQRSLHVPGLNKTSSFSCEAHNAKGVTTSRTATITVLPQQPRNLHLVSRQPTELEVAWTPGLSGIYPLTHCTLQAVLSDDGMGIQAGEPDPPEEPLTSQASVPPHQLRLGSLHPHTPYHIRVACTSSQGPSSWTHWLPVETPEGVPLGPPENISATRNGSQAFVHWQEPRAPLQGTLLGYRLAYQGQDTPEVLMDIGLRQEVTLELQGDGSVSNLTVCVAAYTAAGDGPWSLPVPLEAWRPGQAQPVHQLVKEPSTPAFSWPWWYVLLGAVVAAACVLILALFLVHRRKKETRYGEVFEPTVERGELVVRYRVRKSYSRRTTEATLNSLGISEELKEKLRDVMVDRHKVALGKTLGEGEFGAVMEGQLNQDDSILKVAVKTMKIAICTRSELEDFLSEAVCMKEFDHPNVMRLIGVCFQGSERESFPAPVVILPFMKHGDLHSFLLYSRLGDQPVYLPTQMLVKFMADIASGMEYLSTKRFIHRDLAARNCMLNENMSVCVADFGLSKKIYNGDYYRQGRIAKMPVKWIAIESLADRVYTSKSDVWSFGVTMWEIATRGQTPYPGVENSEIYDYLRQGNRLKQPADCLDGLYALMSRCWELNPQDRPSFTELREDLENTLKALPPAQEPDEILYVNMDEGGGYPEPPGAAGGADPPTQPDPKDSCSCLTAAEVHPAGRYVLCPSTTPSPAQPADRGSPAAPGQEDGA

| Structure (SMILES) | IC50 [1] | IC50 [2] |
| --- | --- | --- |
| CCOc1cn(-c2ccc(F)cc2)nc1C(=O)Nc1ccc(Oc2ccnc3cc(OC)c(OC)cc23)cn1 [Example 84, N-[5-[(6,7-dimethoxy-4-quinolyl)oxy]-2-pyridyl]-4-ethoxy-1-(4-fluorophenyl)pyrazole-3-carboxamide] | < 500 nM | < 500 nM |
| CCOc1cn(-c2ccc(F)cc2C)nc1C(=O)Nc1ccc(Oc2ccnc3cc(OC)c(OC)cc23)cn1 [Example 85, N-[5-[(6,7-dimethoxy-4-quinolyl)oxy]-2-pyridyl]-4-ethoxy-1-(4-fluoro-2-methyl-phenyl)pyrazole-3-carboxamide] | < 500 nM | < 500 nM |
| CCOc1cn(-c2ccc(F)cc2Cl)nc1C(=O)Nc1ccc(Oc2ccnc3cc(OC)c(OC)cc23)cn1 [Example 86, 1-(2-chloro-4-fluoro-phenyl)-N-[5-[(6,7-dimethoxy-4-quinolyl)oxy]-2-pyridyl]-4-ethoxy-pyrazole-3-carboxamide] | < 500 nM | < 500 nM |
| COc1cc2nccc(Oc3ccc(NC(=O)c4nn(-c5ccc(F)cc5)cc4CCN(C)C)nc3)c2cc1OC [Example 87, N-[5-[(6,7-dimethoxy-4-quinolyl)oxy]-2-pyridyl]-4-(2-dimethylaminoethyl)-1-(4-fluorophenyl)pyrazole-3-carboxamide] | < 500 nM | 500 to 5000 nM |
| CCOc1cn(-c2ccc(OC)cc2C)nc1C(=O)Nc1ccc(Oc2ccnc3cc(OC)c(OC)cc23)cn1 [Example 89, N-(5-((6,7-dimethoxyquinolin-4-yl)oxy)pyridin-2-yl)-4-ethoxy-1-(4-methoxy-2-methylphenyl)-1H-pyrazole-3-carboxamide] | < 500 nM | < 500 nM |
| CCOc1cn(-c2cccc([N+](=O)[O-])c2)nc1C(=O)Nc1ccc(Oc2ccnc3cc(OC)c(OC)cc23)c(F)c1 [Example 90, N-(4-((6,7-dimethoxyquinolin-4-yl)oxy)-3-fluorophenyl)-4-ethoxy-1-(3-nitrophenyl)-1H-pyrazole-3-carboxamide] | < 500 nM | < 500 nM |
| CCOc1cn(-c2ccc(OC)cc2C)nc1C(=O)Nc1ccc(Oc2ccnc3cc(OC)c(OC)cc23)c(F)c1 [Example 91, N-(4-((6,7-dimethoxyquinolin-4-yl)oxy)-3-fluorophenyl)-4-ethoxy-1-(4-methoxy-2-methylphenyl)-1H-pyrazole-3-carboxamide] | < 500 nM | < 500 nM |
| CCOc1cn(-c2cccc([N+](=O)[O-])c2)nc1C(=O)Nc1ccc(Oc2ccnc3cc(OC)c(OC)cc23)cn1 [Example 92, N-(5-((6,7-dimethoxyquinolin-4-yl)oxy)pyridin-2-yl)-4-ethoxy-1-(3-nitrophenyl)-1H-pyrazole-3-carboxamide] | < 500 nM | < 500 nM |
| CCOc1cn(-c2ccc(F)cc2C)nc1C(=O)Nc1ccc(Oc2ccnc3cc(OC)c(OC)cc23)cc1OC [Example 94, N-(4-((6,7-dimethoxyquinolin-4-yl)oxy)-2-methoxyphenyl)-4-ethoxy-1-(4-fluoro-2-methylphenyl)-1H-pyrazole-3-carboxamide] | < 500 nM | < 500 nM |
| CCOc1cn(-c2ccc(F)cc2C)nc1C(=O)Nc1ccc(Oc2ccnc3cc(OC)c(OC)cc23)cc1C [Example 95, N-(4-((6,7-dimethoxyquinolin-4-yl)oxy)-2-methylphenyl)-4-ethoxy-1-(4-fluoro-2-methylphenyl)-1H-pyrazole-3-carboxamide] | 500 to 5000 nM | < 500 nM |
| CCOc1cn(-c2ccc(F)c(OC)c2)nc1C(=O)Nc1ccc(Oc2ccnc3cc(OC)c(OC)cc23)c(F)c1 [Example 96, N-(4-((6,7-dimethoxyquinolin-4-yl)oxy)-3-fluorophenyl)-4-ethoxy-1-(4-fluoro-3-methoxyphenyl)-1H-pyrazole-3-carboxamide] | < 500 nM | < 500 nM |
| CCOc1cn(-c2ccc(F)c(OC)c2)nc1C(=O)Nc1ccc(Oc2ccnc3cc(OC)c(OC)cc23)cn1 [Example 97, N-(5-((6,7-dimethoxyquinolin-4-yl)oxy)pyridin-2-yl)-4-ethoxy-1-(4-fluoro-3-methoxyphenyl)-1H-pyrazole-3-carboxamide] | < 500 nM | < 500 nM |
| CCOc1cn(-c2ccc([N+](=O)[O-])cc2)nc1C(=O)Nc1ccc(Oc2ccnc3cc(OC)c(OC)cc23)cn1 [Example 98, N-(5-((6,7-dimethoxyquinolin-4-yl)oxy)pyridin-2-yl)-4-ethoxy-1-(4-nitrophenyl)-1H-pyrazole-3-carboxamide] | < 500 nM | 500 to 5000 nM |
| CCOc1cn(-c2ccc(N)cc2)nc1C(=O)Nc1ccc(Oc2ccnc3cc(OC)c(OC)cc23)cn1 [Example 99, 1-(4-aminophenyl)-N-(5-((6,7-dimethoxyquinolin-4-yl)oxy)pyridin-2-yl)-4-ethoxy-1H-pyrazole-3-carboxamide] | < 500 nM | < 500 nM |
| COc1cc2c(Oc3ccc(NC(=O)c4nc(-c5ccccc5)cs4)nc3)ccnc2cc1OCC1CCNCC1 [Example 101, N-(5-((6-methoxy-7-(piperidin-4-ylmethoxy)quinolin-4-yl)oxy)pyridin-2-yl)-4-phenylthiazole-2-carboxamide] | < 500 nM | < 500 nM |
| COc1cc2c(Oc3ccc(NC(=O)c4nc(Br)cs4)nc3)ccnc2cc1OCC1CCNCC1 [Example 102, 4-bromo-N-(5-((6-methoxy-7-(piperidin-4-ylmethoxy)quinolin-4-yl)oxy)pyridin-2-yl)thiazole-2-carboxamide] | < 500 nM | < 500 nM |
| CCOc1cn(-c2ccc(F)cc2O)nc1C(=O)Nc1ccc(Oc2ccnc3cc(OC)c(OC)cc23)cn1 [Example 104, N-(5-((6,7-dimethoxyquinolin-4-yl)oxy)pyridin-2-yl)-4-ethoxy-1-(4-fluoro-2-hydroxyphenyl)-1H-pyrazole-3-carboxamide] | < 500 nM | < 500 nM |
| CCOc1cn(-c2cccnc2)nc1C(=O)Nc1ccc(Oc2ccnc3cc(OC)c(OC)cc23)c(F)c1 [Example 105, N-(4-((6,7-dimethoxyquinolin-4-yl)oxy)-3-fluorophenyl)-4-ethoxy-1-(pyridin-3-yl)-1H-pyrazole-3-carboxamide] | < 500 nM | < 500 nM |
